According to ChEMBL document CHEMBL1153382 (J Med Chem, 2009):
One block for each molecule: values may come before it. Activity calls are given as the source filed them. The rule behind the calls is not given here.

Tests used:
[1] = biological target: T1, 5-hydroxytryptamine receptor 2B (Homo sapiens, UniProt P41595); experiment: Agonist activity at human 5HT2B receptor expressed in HEK293 cells at 10 uM assessed as calcium flux by FLIPR assay relative to serotonin; format: functional, cell-based
[2] = biological target: T2, 5-hydroxytryptamine receptor 2A (Homo sapiens, UniProt P28223); experiment: Agonist activity at human 5HT2A receptor expressed in HEK293 cells at 10 uM assessed as calcium flux by FLIPR assay relative to serotonin; format: functional, cell-based
[3] = biological target: T3, 5-hydroxytryptamine receptor 2C (Homo sapiens) (UniProt P28335); experiment: Agonist activity at human 5HT2C receptor expressed in HEK293 cells at 10 uM assessed as calcium flux by FLIPR assay relative to serotonin; format: functional, cell-based
T3 sequence (whole entry): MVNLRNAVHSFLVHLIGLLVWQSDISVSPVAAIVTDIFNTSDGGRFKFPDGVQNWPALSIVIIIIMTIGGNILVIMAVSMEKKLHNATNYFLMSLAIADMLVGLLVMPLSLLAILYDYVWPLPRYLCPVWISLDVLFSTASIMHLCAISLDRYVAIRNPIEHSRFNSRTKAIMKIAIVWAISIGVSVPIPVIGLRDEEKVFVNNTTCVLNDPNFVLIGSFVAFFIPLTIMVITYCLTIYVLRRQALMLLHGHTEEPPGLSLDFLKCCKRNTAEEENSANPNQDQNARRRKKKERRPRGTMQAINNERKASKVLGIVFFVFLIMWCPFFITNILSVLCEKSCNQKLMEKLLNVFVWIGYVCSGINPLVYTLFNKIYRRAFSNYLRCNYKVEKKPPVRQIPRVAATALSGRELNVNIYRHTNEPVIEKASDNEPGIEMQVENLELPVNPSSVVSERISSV

[4] = species on record: Homo sapiens; experiment: Selectivity ratio of EC50 for human 5HT2B receptor to EC50 for human 5HT2C receptor
[5] = biological target: Serotonin 2 receptors; 5-HT2a & 5-HT2c (Homo sapiens) (UniProt P28223+P28335); experiment: Selectivity ratio of EC50 for human 5HT2A receptor to EC50 for human 5HT2C receptor
[6] = biological target: T1, 5-hydroxytryptamine receptor 2B; experiment: Agonist activity at human 5HT2B receptor expressed in HEK293 cells assessed as calcium flux by FLIPR assay; format: functional, cell-based
[7] = biological target: T4, 5-hydroxytryptamine receptor 2C (Homo sapiens, UniProt P28335); experiment: Agonist activity at human 5HT2C receptor expressed in HEK293 cells assessed as calcium flux by FLIPR assay; format: functional, cell-based
T4 sequence (P28335 whole entry): T3 sequence (whole entry)

[8] = biological target: T2, 5-hydroxytryptamine receptor 2A; experiment: Agonist activity at human 5HT2A receptor expressed in HEK293 cells assessed as calcium flux by FLIPR assay; format: functional, cell-based

T2 sequence (P28223 whole entry): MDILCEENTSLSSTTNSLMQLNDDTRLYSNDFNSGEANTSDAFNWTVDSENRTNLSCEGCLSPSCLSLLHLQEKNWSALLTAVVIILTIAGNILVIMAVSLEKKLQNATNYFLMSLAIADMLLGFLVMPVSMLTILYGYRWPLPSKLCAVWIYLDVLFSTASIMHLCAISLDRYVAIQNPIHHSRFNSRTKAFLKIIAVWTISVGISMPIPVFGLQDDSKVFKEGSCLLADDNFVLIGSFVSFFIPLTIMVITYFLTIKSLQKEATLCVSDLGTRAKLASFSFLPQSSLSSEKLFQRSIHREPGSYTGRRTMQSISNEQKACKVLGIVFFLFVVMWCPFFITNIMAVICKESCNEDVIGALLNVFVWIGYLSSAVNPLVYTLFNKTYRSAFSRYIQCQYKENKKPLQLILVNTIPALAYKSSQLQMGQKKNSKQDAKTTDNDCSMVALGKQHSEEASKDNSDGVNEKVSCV
Serotonin 2 receptors; 5-HT2a & 5-HT2c (Homo sapiens), sequence (P28223 whole entry, looked up, one chain of several): as the sequence (P28223 whole entry) above
T1 sequence (P41595 whole entry): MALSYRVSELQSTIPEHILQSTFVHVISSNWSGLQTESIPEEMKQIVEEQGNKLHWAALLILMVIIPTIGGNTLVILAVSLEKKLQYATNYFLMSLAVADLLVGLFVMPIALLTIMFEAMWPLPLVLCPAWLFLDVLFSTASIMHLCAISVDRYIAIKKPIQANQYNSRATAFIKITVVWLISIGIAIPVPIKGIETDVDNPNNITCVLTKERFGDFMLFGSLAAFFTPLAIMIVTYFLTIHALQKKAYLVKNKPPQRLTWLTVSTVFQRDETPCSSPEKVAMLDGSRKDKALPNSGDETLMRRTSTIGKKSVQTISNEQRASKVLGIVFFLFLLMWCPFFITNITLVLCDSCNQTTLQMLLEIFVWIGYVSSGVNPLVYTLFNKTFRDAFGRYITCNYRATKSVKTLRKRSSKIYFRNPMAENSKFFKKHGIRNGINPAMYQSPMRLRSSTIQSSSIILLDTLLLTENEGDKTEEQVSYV

SMILES: NC[C@H]1C[C@@H]1c1cccc(Br)c1 (relative stereo)
Emax [1]: 74%
Emax [2]: 55%
Emax [3]: 90%
Ratio EC50 [4]: 10
Ratio EC50 [5]: 123

SMILES: Cc1ccc([C@H]2C[C@@H]2CN)cc1 (relative stereo)
Emax [1]: 79%
Emax [2]: 18%
Emax [3]: 69%
Ratio EC50 [4]: 0.28
Ratio EC50 [5]: 14

SMILES: Cc1ccccc1[C@H]1C[C@@H]1CN (relative stereo)
Emax [1]: 86%
Emax [2]: 69%
Emax [3]: 99%
Ratio EC50 [4]: 2.3
Ratio EC50 [5]: 71

EC50 [6]: > 1000 nM
EC50 [7]: > 1000 nM
Emax [1]: 10%
Emax [2]: < 12%
Emax [3]: 45%
Activity [8]: inactive
SMILES: NC[C@H]1C[C@@H]1c1ccc(-c2ccc(F)cc2)cc1 (relative stereo)

Activity [6]: inactive
EC50 [7]: > 1000 nM
Emax [1]: < 12%
Emax [2]: < 12%
Emax [3]: 61%
Activity [8]: inactive
SMILES: NC[C@H]1C[C@@H]1c1cccc(-c2ccc(C(F)(F)F)cc2)c1 (relative stereo)

Activity [6]: inactive
EC50 [7]: 695 nM
Emax [1]: < 12%
Emax [2]: < 12%
Emax [3]: 79%
Activity [8]: inactive
SMILES: NC[C@H]1C[C@@H]1c1cccc(-c2ccc(F)cc2)c1 (relative stereo)

SMILES: NC[C@H]1C[C@@H]1c1ccccc1C(F)(F)F (relative stereo)
Emax [1]: 102%
Emax [2]: < 12%
Emax [3]: 101%
Ratio EC50 [4]: 7.2
Activity [8]: inactive

Activity [6]: inactive
EC50 [7]: > 1000 nM
Emax [1]: < 12%
Emax [2]: < 12%
Emax [3]: 38%
Activity [8]: inactive
SMILES: NC[C@H]1C[C@@H]1c1ccccc1NC(=O)Nc1ccc(Cl)cc1 (relative stereo)

SMILES: NC[C@H]1C[C@@H]1c1cccc(O)c1 (relative stereo)
Emax [1]: 98%
Emax [2]: 92%
Emax [3]: 94%
Ratio EC50 [4]: 1.7
Ratio EC50 [5]: 75

SMILES: NC[C@H]1C[C@@H]1c1cccc(C(F)(F)F)c1 (relative stereo)
Emax [1]: 78%
Emax [2]: 35%
Emax [3]: 94%
Ratio EC50 [4]: 2.6
Ratio EC50 [5]: 50

SMILES: NC[C@H]1C[C@@H]1c1cccc(F)c1F (relative stereo)
Emax [1]: 93%
Emax [2]: 45%
Emax [3]: 101%
Ratio EC50 [4]: 3.7
Ratio EC50 [5]: > 50

SMILES: CNC[C@H]1C[C@@H]1c1ccccc1 (racemic)
Emax [1]: 26%
Emax [2]: < 12%
Emax [3]: 101%
Activity [8]: inactive

SMILES: Cc1ccc([C@H]2C[C@@H]2CN)cc1C (relative stereo)
Emax [1]: 78%
Emax [2]: 40%
Emax [3]: 97%
Ratio EC50 [4]: 0.33
Ratio EC50 [5]: 68

SMILES: Cc1cccc([C@H]2C[C@@H]2CN)c1C (relative stereo)
Emax [1]: 90%
Emax [2]: 59%
Emax [3]: 107%
Ratio EC50 [4]: 1.2
Ratio EC50 [5]: 52

SMILES: NC[C@H]1C[C@@H]1c1cccc(Cl)c1Cl (relative stereo)
Emax [1]: 89%
Emax [2]: 77%
Emax [3]: 96%
Ratio EC50 [4]: 1.4
Ratio EC50 [5]: 33

SMILES: NC[C@H]1C[C@@H]1c1ccc(Cl)cc1 (relative stereo)
Emax [1]: 80%
Emax [2]: 64%
Emax [3]: 106%
Ratio EC50 [4]: 5.3
Ratio EC50 [5]: 59

SMILES: NC[C@H]1C[C@@H]1c1ccc(F)cc1F (relative stereo)
Emax [1]: 88%
Emax [2]: 85%
Emax [3]: 98%
Ratio EC50 [4]: 9.9
Ratio EC50 [5]: 13

SMILES: NC[C@H]1C[C@@H]1c1c(F)cccc1F (relative stereo)
Emax [1]: 58%
Emax [2]: 38%
Emax [3]: 85%
Ratio EC50 [4]: 39
Ratio EC50 [5]: > 11

SMILES: NC[C@H]1C[C@@H]1c1ccc(Cl)cc1Cl (relative stereo)
Emax [1]: 89%
Emax [2]: 88%
Emax [3]: 98%
Ratio EC50 [4]: 4.7
Ratio EC50 [5]: 2.9

SMILES: NC[C@H]1C[C@@H]1c1ccc(C(F)(F)F)cc1 (relative stereo)
Emax [1]: 56%
Emax [2]: < 12%
Emax [3]: 91%
Activity [8]: inactive

SMILES: NC[C@@H]1C[C@H]1c1ccccc1 [listing 1 of 2 here]
EC50 [6]: 3090 nM
EC50 [7]: 909 nM

SMILES: NC[C@@H]1C[C@H]1c1ccccc1 (relative stereo) [listing 1 of 2 here]
Emax [1]: 93%
Emax [2]: 74%
Emax [3]: 96%
Ratio EC50 [4]: 6
Ratio EC50 [5]: 106

SMILES: Cc1ccc([C@H]2C[C@@H]2CN)c(Br)c1 (relative stereo)
Emax [1]: 68%
Emax [2]: 62%
Emax [3]: 84%
Ratio EC50 [4]: 1.2
Ratio EC50 [5]: 4.8

SMILES: NC[C@H]1C[C@@H]1c1ccc(F)c(F)c1 (relative stereo)
Emax [1]: 96%
Emax [2]: 96%
Emax [3]: 103%
Ratio EC50 [4]: 3.2
Ratio EC50 [5]: 64

SMILES: NC[C@H]1C[C@@H]1c1ccccc1F (relative stereo)
Emax [1]: 65%
Emax [2]: 52%
Emax [3]: 91%
Ratio EC50 [4]: 2.1
Ratio EC50 [5]: 20

SMILES: NC[C@H]1C[C@@H]1c1ccc(Br)cc1 (relative stereo)
Emax [1]: 51%
Emax [2]: 26%
Emax [3]: 87%
Ratio EC50 [4]: 20
Ratio EC50 [5]: > 7

SMILES: c1ccc(CNC[C@H]2C[C@@H]2c2ccccc2)cc1 (racemic)
Activity [6]: inactive
Emax [1]: 10%
Emax [2]: < 12%
Emax [3]: 97%
Activity [8]: inactive

SMILES: NC[C@H]1C[C@@H]1c1ccccc1Cl (relative stereo)
Emax [1]: 82%
Emax [2]: 54%
Emax [3]: 94%
Ratio EC50 [4]: 5.8
Ratio EC50 [5]: 31

SMILES: c1cc2c3c(c1)c1c(n3CCNC2)CCCC1
Activity [6]: inactive
EC50 [7]: 261 nM
Emax [1]: < 12%
Emax [2]: < 12%
Activity [8]: inactive

SMILES: NC[C@H]1C[C@H]1c1ccccc1 (racemic)
Emax [1]: 20%
Emax [2]: < 12%
Emax [3]: 104%
Activity [8]: inactive

SMILES: COc1cccc([C@H]2C[C@@H]2CN)c1 (relative stereo)
Emax [1]: 96%
Emax [2]: 90%
Emax [3]: 97%
Ratio EC50 [4]: 4.8
Ratio EC50 [5]: 39

SMILES: NC[C@H]1C[C@@H]1c1ccc(Cl)cc1F (relative stereo)
Emax [1]: 86%
Emax [2]: 83%
Emax [3]: 94%
Ratio EC50 [4]: 3.6
Ratio EC50 [5]: 6.1

SMILES: NC[C@@H]1C[C@H]1c1ccccc1Br [listing 1 of 2 here]
Emax [1]: 96%
Emax [2]: < 12%
Emax [3]: 113%
Ratio EC50 [4]: 2.9
Activity [8]: inactive
Ratio EC50 [5]: > 128

SMILES: NC[C@H]1C[C@@H]1c1ccccc1O (relative stereo)
Emax [1]: 74%
Emax [2]: 81%
Emax [3]: 94%
Ratio EC50 [4]: 3.1
Ratio EC50 [5]: 3.2

SMILES: Cc1cccc(Cl)c1[C@H]1C[C@@H]1CN (relative stereo)
Emax [1]: 90%
Emax [2]: 56%
Emax [3]: 97%
Ratio EC50 [4]: 2
Ratio EC50 [5]: 207

SMILES: COc1ccc([C@H]2C[C@@H]2CN)cc1 (relative stereo)
Activity [6]: inactive
Emax [1]: < 12%
Emax [2]: < 12%
Emax [3]: 86%
Activity [8]: inactive

SMILES: NC[C@H]1C[C@@H]1c1cccc(Cl)c1 (relative stereo)
Emax [1]: 78%
Emax [2]: 42%
Emax [3]: 98%
Ratio EC50 [4]: 5.9
Ratio EC50 [5]: 189

SMILES: NC[C@@H]1C[C@H]1c1ccccc1 (relative stereo) [listing 2 of 2 here]
EC50 [6]: 85 nM
EC50 [7]: 13 nM
EC50 [8]: 1400 nM

SMILES: Cc1cc([C@H]2C[C@@H]2CN)ccc1F (relative stereo)
Emax [1]: 83%
Emax [2]: 73%
Emax [3]: 91%
Ratio EC50 [4]: 0.83
Ratio EC50 [5]: 39

SMILES: NC[C@H]1C[C@@H]1c1cccc(F)c1 (relative stereo)
Emax [1]: 87%
Emax [2]: 71%
Emax [3]: 92%
Ratio EC50 [4]: 1.1
Ratio EC50 [5]: 131

SMILES: NC[C@@H]1C[C@H]1c1ccccc1 [listing 2 of 2 here]
Emax [1]: 72%
Emax [2]: < 12%
Emax [3]: 102%
Ratio EC50 [4]: 3.4
Activity [8]: inactive

SMILES: COc1ccccc1[C@H]1C[C@@H]1CN (relative stereo)
Emax [1]: 83%
Emax [2]: 61%
Emax [3]: 93%
Ratio EC50 [4]: 7.7
Ratio EC50 [5]: 84

SMILES: NC[C@@H]1C[C@H]1c1ccccc1Br [listing 2 of 2 here]
EC50 [6]: 224 nM
EC50 [7]: 78 nM

SMILES: NC[C@H]1C[C@@H]1c1ccc2ccccc2c1 (relative stereo)
Emax [1]: 21%
Emax [2]: < 12%
Emax [3]: 60%
Ratio EC50 [4]: 0.18
Activity [8]: inactive

SMILES: Cc1ccc(Cl)c([C@H]2C[C@@H]2CN)c1F (relative stereo)
Emax [1]: 74%
Emax [2]: 65%
Emax [3]: 117%
Ratio EC50 [4]: 9.2
Ratio EC50 [5]: 26
